Experimental data from ChEMBL document CHEMBL1129443, “Inactivation of S-adenosyl-L-homocysteine hydrolase by amide and ester derivatives of adenosine-5'-carboxylic acid” (J Med Chem, 1996).

Columns and labels:
Adenosylhomocysteinase [1] = target: T1, Adenosylhomocysteinase (Homo sapiens, UniProt P23526); assay: Inhibition of S-adenosyl-L-homocysteine hydrolase, inactivation rate constant.
Target sequence in this assay (P23526 whole entry): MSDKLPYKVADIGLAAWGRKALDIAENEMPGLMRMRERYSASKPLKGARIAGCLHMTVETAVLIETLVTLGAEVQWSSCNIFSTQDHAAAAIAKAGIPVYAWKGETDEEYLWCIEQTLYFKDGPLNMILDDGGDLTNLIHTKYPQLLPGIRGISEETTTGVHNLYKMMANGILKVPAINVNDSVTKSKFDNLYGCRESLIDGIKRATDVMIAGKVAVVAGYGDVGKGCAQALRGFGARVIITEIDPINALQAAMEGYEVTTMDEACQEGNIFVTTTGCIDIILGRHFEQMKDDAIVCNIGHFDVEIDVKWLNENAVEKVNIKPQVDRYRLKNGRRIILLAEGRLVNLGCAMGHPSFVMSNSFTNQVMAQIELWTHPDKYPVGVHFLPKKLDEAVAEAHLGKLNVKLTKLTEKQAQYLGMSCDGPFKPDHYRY

Adenosylhomocysteinase [2] = target: T1, Adenosylhomocysteinase
Target sequence in this assay (P23526 2-432 limits assumed): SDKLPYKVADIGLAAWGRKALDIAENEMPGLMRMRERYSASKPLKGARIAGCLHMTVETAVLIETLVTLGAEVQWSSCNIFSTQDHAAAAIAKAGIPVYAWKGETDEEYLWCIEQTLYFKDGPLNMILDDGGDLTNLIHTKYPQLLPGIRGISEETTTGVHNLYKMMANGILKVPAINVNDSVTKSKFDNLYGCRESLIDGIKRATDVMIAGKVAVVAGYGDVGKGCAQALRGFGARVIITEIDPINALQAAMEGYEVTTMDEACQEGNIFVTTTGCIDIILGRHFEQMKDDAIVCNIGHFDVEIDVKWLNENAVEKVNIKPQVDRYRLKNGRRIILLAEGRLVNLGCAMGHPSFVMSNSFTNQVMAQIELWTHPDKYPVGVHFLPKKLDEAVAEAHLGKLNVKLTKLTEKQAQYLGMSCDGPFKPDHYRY
Description: Inhibition of S-adenosyl-L-homocysteine hydrolase, dissociation constant.

Row | SMILES | Ki (Adenosylhomocysteinase [1]) [nM] | K2 (Adenosylhomocysteinase [2]) [min⁻¹]
1 | CCN(CC)C(=O)[C@H]1OC(n2cnc3c(N)ncnc32)[C@H](O)[C@@H]1O (stereo partly drawn) | 570 | 0.05
2 | Nc1ncnc2c1ncn2C1O[C@H](C(=O)NCc2ccccc2)[C@@H](O)[C@H]1O (stereo partly drawn) | 43400 | 0.03
3 | Nc1ncnc2c1ncn2[C@@H]1O[C@H](C(=O)O)[C@@H](O)[C@H]1O [5'-CARBOXY ADENOSINE] | 410 | 0.045
4 | CCCCOC(=O)[C@H]1OC(n2cnc3c(N)ncnc32)[C@H](O)[C@@H]1O (stereo partly drawn) | 710 | 0.11
5 | Nc1ncnc2c1ncn2C1O[C@H](C(=O)OCCCl)[C@@H](O)[C@H]1O (stereo partly drawn) | 320 | 0.35
6 | COC(=O)[C@H]1O[C@@H](n2cnc3c(N)ncnc32)[C@H](O)[C@@H]1O | 1700 | 0.78
7 | CC(C)COC(=O)[C@H]1OC(n2cnc3c(N)ncnc32)[C@H](O)[C@@H]1O (stereo partly drawn) | 570 | 0.077
8 | CNC(=O)[C@H]1O[C@@H](n2cnc3c(N)ncnc32)[C@H](O)[C@@H]1O | 1930 | 0.095
9 | Nc1ncnc2c1ncn2C1O[C@H](C(=O)OCc2ccccc2)[C@@H](O)[C@H]1O (stereo partly drawn) | 360 | 0.017
10 | CC(C)OC(=O)[C@H]1OC(n2cnc3c(N)ncnc32)[C@H](O)[C@@H]1O (stereo partly drawn) | 770 | 0.064
11 | Nc1ncnc2c1ncn2C1O[C@H](C(=O)Nc2ccccc2)[C@@H](O)[C@H]1O (stereo partly drawn) | 48500 | 0.028
12 | CCCCNC(=O)[C@H]1OC(n2cnc3c(N)ncnc32)[C@H](O)[C@@H]1O (stereo partly drawn) | 19800 | 0.03
13 | Nc1ncnc2c1ncn2[C@@H]1O[C@H](C=O)[C@@H](O)[C@H]1O | 39 | 0.65
14 | NC(=O)[C@H]1OC(n2cnc3c(N)ncnc32)[C@H](O)[C@@H]1O (stereo partly drawn) | 2600 | 0.1
